Assay results: ChEMBL document CHEMBL5465560, “Selectivity Literature for EUbOPEN Chemogenomic Library” (2024)
Values belong to the molecule of their own block, whether it stands above or below them.

Assays:
[1] = molecular target: T1, Serine/threonine-protein kinase 3 (Homo sapiens) (UniProt Q13188); experiment: Selectivity interaction (ActivX KiNativ screen (kinase selectivity in THP-1 cell lysates)) EUB0000639a STK3; assay type: subcellular; conditions: lysate, at 5 µM
T1 sequence (whole entry): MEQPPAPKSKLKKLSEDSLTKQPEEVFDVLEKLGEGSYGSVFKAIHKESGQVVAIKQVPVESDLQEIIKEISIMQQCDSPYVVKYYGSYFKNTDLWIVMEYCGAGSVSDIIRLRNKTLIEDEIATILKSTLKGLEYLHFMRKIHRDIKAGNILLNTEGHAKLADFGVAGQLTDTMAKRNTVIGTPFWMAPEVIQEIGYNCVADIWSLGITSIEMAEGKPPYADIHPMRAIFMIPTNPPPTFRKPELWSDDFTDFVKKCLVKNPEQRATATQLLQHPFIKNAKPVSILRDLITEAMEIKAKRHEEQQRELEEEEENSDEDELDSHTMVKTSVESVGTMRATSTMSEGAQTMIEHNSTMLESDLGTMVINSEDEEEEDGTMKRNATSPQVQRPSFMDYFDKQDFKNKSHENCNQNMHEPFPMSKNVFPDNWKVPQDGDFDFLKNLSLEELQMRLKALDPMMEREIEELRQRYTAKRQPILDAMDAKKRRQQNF

[2] = molecular target: Homeodomain-interacting protein kinase 2 (Homo sapiens, UniProt Q9H2X6); experiment: Selectivity interaction (Kinase panel (Invitrogen)) EUB0000639a HIPK2; conditions: at 200 nM
Chain of Homeodomain-interacting protein kinase 2 (Q9H2X6 whole entry, looked up): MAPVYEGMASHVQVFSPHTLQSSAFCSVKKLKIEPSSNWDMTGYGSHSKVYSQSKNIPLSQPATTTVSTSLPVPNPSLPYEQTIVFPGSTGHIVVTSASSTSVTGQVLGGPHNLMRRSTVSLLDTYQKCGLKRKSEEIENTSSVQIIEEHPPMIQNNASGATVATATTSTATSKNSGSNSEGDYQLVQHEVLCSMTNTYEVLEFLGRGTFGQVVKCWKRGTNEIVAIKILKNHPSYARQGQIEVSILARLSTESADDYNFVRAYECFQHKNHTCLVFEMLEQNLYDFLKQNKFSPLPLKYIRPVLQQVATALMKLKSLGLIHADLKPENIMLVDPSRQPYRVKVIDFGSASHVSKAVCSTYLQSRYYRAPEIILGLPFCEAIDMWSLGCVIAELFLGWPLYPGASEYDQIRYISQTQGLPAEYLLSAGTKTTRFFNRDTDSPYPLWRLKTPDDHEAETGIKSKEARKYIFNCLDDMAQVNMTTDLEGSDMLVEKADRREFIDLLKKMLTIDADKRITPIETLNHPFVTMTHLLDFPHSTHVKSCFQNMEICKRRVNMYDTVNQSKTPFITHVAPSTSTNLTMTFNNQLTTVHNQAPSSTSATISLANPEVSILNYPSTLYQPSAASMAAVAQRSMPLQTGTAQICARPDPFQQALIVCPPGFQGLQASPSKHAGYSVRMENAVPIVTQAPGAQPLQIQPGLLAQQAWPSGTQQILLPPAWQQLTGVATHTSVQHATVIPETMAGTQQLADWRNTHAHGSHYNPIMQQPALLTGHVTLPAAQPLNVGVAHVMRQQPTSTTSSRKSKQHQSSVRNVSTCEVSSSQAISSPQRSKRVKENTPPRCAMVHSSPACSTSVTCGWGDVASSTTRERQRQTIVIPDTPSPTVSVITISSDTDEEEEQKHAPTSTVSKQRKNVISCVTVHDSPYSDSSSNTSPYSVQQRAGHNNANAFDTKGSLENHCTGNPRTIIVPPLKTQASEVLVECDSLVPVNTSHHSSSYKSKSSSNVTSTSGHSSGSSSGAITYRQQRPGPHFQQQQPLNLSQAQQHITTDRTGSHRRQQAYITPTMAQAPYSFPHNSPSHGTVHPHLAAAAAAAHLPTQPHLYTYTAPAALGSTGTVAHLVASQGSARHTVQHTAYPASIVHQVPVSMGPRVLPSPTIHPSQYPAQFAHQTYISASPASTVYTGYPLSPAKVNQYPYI

[3] = molecular target: Prostaglandin E2 receptor EP2 subtype (Homo sapiens) (UniProt P43116); experiment: Selectivity interaction (Eurofins CEREP Diversity Profile (receptors and ion channels)) EUB0000279b PTGER2; conditions: at 10 µM
Chain of Prostaglandin E2 receptor EP2 subtype (Homo sapiens) (P43116 whole entry, canonical isoform): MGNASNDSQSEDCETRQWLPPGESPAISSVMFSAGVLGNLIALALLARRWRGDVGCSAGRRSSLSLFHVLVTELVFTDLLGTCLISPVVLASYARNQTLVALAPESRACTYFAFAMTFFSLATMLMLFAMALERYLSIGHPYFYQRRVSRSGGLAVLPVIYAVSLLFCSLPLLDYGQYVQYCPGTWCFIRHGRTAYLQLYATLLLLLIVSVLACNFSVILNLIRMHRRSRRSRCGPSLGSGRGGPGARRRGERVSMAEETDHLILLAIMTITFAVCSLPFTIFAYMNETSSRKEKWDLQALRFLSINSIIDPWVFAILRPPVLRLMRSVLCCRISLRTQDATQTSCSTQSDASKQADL

[4] = test system: Phosphatidylinositol 4,5-bisphosphate 3-kinase catalytic subunit alpha isoform (Homo sapiens), P42336 [H1047L]; conditions: at 10 µM
Chain of Phosphatidylinositol 4,5-bisphosphate 3-kinase catalytic subunit alpha isoform (Homo sapiens), P42336 [H1047L] (P42336 whole entry H1047L, canonical isoform): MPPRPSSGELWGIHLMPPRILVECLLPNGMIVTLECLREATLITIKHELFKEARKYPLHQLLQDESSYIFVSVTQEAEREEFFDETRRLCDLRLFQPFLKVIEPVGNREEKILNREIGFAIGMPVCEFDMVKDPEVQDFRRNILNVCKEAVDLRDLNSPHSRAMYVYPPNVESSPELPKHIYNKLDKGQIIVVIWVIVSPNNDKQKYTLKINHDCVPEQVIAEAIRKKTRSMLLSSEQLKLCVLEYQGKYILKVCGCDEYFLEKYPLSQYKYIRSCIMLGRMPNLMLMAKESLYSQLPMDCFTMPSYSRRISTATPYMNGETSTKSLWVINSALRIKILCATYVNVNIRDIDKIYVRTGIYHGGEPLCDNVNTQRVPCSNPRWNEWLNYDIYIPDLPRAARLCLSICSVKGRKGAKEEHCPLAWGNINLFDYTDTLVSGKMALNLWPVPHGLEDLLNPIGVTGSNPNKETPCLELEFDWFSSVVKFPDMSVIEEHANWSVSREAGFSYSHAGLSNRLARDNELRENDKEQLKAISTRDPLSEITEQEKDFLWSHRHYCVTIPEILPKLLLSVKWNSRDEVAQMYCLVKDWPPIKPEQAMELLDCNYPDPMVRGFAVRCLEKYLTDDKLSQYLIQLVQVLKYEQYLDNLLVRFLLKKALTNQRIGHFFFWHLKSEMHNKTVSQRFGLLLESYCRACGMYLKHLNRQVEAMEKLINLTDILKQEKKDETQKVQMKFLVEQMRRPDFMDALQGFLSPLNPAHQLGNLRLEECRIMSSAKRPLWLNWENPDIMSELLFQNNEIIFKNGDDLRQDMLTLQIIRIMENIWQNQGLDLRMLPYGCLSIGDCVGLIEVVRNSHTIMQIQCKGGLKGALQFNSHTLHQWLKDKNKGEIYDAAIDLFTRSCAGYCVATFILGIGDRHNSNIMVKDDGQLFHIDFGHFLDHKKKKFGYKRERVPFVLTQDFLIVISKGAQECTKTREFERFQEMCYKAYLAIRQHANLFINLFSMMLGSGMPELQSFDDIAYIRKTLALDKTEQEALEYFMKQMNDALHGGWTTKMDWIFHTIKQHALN

[5] = molecular target: T2, Cyclin-dependent kinase 11A (Homo sapiens) (UniProt Q9UQ88); experiment: Selectivity interaction (KinomeScan (DiscoverX)) EUB0000595a CDK11A; conditions: at 10 µM
T2 sequence (whole entry): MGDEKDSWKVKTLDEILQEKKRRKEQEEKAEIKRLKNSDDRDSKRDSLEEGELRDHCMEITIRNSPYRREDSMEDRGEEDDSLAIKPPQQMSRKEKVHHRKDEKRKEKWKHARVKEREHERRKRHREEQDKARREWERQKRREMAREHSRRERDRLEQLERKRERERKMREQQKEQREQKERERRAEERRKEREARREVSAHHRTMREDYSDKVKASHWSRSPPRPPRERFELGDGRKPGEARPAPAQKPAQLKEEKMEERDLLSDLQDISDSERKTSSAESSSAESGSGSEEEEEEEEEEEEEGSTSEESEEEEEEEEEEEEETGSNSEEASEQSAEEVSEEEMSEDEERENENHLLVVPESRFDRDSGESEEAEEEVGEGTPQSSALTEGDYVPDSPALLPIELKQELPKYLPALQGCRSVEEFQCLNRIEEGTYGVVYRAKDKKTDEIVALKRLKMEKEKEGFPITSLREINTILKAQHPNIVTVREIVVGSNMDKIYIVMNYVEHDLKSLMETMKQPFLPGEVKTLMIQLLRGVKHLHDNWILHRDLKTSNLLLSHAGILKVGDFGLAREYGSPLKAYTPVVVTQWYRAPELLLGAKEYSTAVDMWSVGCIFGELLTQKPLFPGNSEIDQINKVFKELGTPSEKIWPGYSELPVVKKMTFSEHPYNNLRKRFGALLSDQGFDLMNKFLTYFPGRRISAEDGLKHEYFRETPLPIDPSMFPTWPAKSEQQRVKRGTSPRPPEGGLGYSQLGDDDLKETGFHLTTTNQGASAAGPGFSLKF

[6] = molecular target: Ribosomal protein S6 kinase alpha-3 (Homo sapiens, UniProt P51812); experiment: Selectivity interaction (KinomeScan (DiscoverX)) EUB0000092b RPS6KA3; conditions: at 10 µM
Chain of Ribosomal protein S6 kinase alpha-3 (P51812 whole entry): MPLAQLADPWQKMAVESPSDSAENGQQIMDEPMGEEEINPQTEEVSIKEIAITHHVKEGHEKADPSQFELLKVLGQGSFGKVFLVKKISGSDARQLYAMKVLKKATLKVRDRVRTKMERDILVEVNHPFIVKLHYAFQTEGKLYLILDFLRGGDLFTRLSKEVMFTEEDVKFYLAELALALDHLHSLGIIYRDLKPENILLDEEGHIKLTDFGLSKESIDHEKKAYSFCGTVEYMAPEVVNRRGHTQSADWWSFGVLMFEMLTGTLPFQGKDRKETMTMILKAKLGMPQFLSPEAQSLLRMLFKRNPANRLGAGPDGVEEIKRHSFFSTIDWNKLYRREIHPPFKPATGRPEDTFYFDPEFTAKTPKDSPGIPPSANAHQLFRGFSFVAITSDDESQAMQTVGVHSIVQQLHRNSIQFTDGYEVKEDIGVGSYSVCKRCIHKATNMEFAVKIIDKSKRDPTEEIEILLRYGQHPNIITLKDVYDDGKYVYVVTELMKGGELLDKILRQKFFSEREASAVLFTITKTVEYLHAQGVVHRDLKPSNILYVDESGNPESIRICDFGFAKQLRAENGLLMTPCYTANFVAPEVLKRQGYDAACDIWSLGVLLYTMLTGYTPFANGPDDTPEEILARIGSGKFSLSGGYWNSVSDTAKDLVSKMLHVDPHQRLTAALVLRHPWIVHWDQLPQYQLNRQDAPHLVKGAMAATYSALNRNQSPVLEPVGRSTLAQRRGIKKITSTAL

[7] = molecular target: T3, Cytoplasmic tyrosine-protein kinase BMX (Homo sapiens) (UniProt P51813); experiment: Selectivity interaction (KinomeScan (DiscoverX)) EUB0000045b BMX
T3 sequence (whole entry): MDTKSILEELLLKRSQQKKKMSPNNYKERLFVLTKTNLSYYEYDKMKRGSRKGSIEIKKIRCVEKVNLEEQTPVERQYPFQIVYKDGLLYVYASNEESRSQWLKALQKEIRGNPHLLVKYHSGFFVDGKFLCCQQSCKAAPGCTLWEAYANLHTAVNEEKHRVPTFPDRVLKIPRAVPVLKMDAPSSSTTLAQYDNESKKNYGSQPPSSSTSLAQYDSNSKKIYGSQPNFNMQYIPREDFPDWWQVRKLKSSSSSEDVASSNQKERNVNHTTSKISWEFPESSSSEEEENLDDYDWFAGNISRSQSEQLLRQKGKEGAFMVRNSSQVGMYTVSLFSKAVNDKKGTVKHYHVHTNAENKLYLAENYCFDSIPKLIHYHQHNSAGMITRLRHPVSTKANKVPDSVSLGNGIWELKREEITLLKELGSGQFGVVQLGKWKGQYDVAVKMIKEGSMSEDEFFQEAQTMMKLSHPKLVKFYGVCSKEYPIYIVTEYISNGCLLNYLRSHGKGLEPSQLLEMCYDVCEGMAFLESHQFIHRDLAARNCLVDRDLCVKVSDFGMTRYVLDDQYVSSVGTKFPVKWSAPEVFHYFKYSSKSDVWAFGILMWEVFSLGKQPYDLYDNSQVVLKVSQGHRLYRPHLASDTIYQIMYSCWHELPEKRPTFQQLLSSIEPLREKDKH

[8] = molecular target: Mitogen-activated protein kinase 10 (Homo sapiens, UniProt P53779); experiment: Selectivity interaction (KinomeScan (DiscoverX)) EUB0000607a MAPK10; conditions: at 10 µM
Chain of Mitogen-activated protein kinase 10 (P53779 whole entry): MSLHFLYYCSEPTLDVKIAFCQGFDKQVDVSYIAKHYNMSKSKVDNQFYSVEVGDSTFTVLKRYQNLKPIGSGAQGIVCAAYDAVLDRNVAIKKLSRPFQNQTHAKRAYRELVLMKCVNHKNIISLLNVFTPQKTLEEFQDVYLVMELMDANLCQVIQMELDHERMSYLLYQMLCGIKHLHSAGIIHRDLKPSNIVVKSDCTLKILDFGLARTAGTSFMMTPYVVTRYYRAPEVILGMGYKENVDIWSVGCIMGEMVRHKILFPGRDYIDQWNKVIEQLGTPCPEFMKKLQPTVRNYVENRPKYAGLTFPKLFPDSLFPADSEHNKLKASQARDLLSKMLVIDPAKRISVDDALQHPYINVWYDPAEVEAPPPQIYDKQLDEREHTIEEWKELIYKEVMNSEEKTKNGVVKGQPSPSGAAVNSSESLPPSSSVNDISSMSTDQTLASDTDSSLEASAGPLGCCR

[9] = molecular target: T4, EKC/KEOPS complex subunit TP53RK (Homo sapiens) (UniProt Q96S44); experiment: Selectivity interaction (Kinase panel (KiNativ target engagement assay in Jurkat cells)) EUB0001635a TP53RK; assay type: cell-based; conditions: Selectivity number of off-targets 0.0, Selectivity number of targets 233.0, Source Knowledge https://www.sciencedirect.com/science/article/pii/S2451945619300674?via%3Dihub, at 1 µM
T4 sequence (whole entry): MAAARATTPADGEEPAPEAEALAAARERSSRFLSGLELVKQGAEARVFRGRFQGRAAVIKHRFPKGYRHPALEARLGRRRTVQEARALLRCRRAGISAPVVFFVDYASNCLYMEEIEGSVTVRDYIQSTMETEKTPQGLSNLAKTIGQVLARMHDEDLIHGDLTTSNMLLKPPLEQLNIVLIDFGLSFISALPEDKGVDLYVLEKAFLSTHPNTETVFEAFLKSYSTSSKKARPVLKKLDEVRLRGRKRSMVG

- % of inhibition [1]: -19.6%
- % of inhibition [2]: 4.6%
SMILES: CC[C@@H]1[C@H](F)C(=O)N[C@@H]1COc1nccc2cc(C(N)=O)c(OC)cc12 [ZIMLOVISERTIB]

- % of control [3]: 95%
SMILES: CC(=O)c1cc(-c2ccccc2OCC2CC2)c2ncccn12

SMILES: COCC(=O)NC/C=C/c1ccc2ncnc(Nc3ccc(Oc4ccc(C)nc4)c(C)c3)c2c1 [CP-724714]
- % of control [4]: 100%
- % of control [5]: 0.5%

SMILES: CCC(=O)N1CCN(c2ccc(-n3c(=O)ccc4cnc5ccc(-c6cnc7ccccc7c6)cc5c43)cc2C(F)(F)F)CC1
- % of control [6]: 38%

SMILES: C=CC(=O)Nc1cc(-n2c(=O)ccc3cnc4ccc(-c5ccc(NS(C)(=O)=O)cc5)cc4c32)ccc1C
- % of control ([7]; at 1 µM): 29%
- % of control ([7]; at 10 µM): 6%

SMILES: CNC(=O)Nc1ccc(-c2nc(N3CC4CCC(C3)O4)c3cnn(C4CCC5(CC4)OCCO5)c3n2)cc1
- % of control [8]: 86%

SMILES: C=CC(=O)Nc1ccc(C(=O)Nc2[nH]nc3c2CN(C(=O)N[C@H](CN(C)C)c2ccccc2)C3(C)C)cc1
- % of engagement [9]: -14.9%
